Data: patent US20110263429A1, “Pesticidal Combinations” (priority 2008, published 2011)

Tests used:
cutworm (Agrotis sp.) = experiment: Field seed-treatment trial, cutworm larvae count per plot; format: in vivo; details: for Control (%) Observed: seed treatment, field with heavy Agrotis sp. population, larvae per plot counted 22 days after planting, 4 replicates, fludioxonil + mefenoxam base treatment
Source text: (§1) An unexpected effect exists whenever the action of an active ingredient combination is greater than the sum of the actions of the individual components.
(§2) The action to be expected E for a given active ingredient combination obeys the so-called COLBY formula and can be calculated as follows (COLBY, S. R. “Calculating synergistic and antagonistic responses of herbicide combination”. Weeds, Vol. 15, pages 20-22; 1967):
(§3) ppm=milligrams of active ingredient (=a.i.) per liter of spray mixture X=% action by active ingredient A) using p ppm of active ingredient Y=% action by active ingredient B) using q ppm of active ingredient.
(§4) According to COLBY, the expected (additive) action of active ingredients A)+B) using p+q ppm of active ingredient is
(§5) If the action actually observed (O) is greater than the expected action (E), then the action of the combination is super-additive, i.e. there is a synergistic effect.
In a field having a heavy population of cutworm (Agrotis sp.), seeds are planted that have the following treatments: • (a) a compound of formula (X) (0.6 mg ai/seed) • (b) thiamethoxam (0.63 mg ai/seed) • (c) a compound of formula (X) (0.6 mg ai/seed)+thiamethoxam (0.63 mg ai/seed)
For all treatments, including check, fludioxonil (2.5 g ai/100 kg seeds) and mefenoxam (1.0 g ai/100 kg seeds) were used as a fungicide base treatment.
Assessment: Count number larvae per plot (22 days after planting) Number of replicates: 4

[1] = tested on: cutworm (Spodoptera littoralis); experiment: Field seed-treatment trial, plant count per plot; format: in vivo; details: field with heavy Spodoptera littoralis population, plants per plot counted 13 days after planting, 4 replicates, fludioxonil + mefenoxam base treatment
Source text: as §1, §2, §3, §4, §5
In a field having a heavy population of cutworm (Spodoptera littoralis), seeds are planted that have the following treatments: • (a) a compound of formula (X) (0.6 mg ai/seed) • (b) thiamethoxam (0.63 mg ai/seed) • (c) a compound of formula (X) (0.6 mg ai/seed)+thiamethoxam (0.63 mg ai/seed)
For all treatments, including check, fludioxonil (2.5 g ai/100 kg seeds) and mefenoxam (1.0 g ai/100 kg seeds) were used as a fungicide base treatment. […]

Molecule | Control (%) Colby expected (cutworm (Agrotis sp.); expected (additive) action by COLBY formula, Agrotis sp., 22 days after planting) | Control (%) Observed (cutworm (Agrotis sp.)) | % Control Observed [1]
mixture of 5,6-Dihydro-3′-O-ethyl Spinosyn J (RN: 187166-40-1 and 3′-O-Ethyl Spinosyn L (RN: 187166-15-0) in a weight ratio of 50-90%:10-50% [(a)] | 15% | 50% | 48%
CN1COCN(Cc2cnc(Cl)s2)/C1=N\[N+](=O)[O-] [(b), thiamethoxam] |  | 31% | 40%
